The source of these data is the METLIN SMRT retention time set (Domingo-Almenara et al. 2019).

A short description of the data set: gradient 5% acetonitrile 3 min, to 50% in 2 min, to 85% in 15 min, held 3 min, 100 µL/min. The following applies: column: Zorbax Extend-C18 2.1 x 50 mm; eluents: water / acetonitrile, 0.1% formic acid. The method, boiled down:
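The mobile phases were water and acetonitrile, each with 0.1% formic acid, pumped at 100 μL/min through a Zorbax Extend-C18 column (2.1 × 50 mm, 1.8 μm). Pure standards were injected as mixtures of ~100 molecules and detected by a quadrupole time-of-flight mass spectrometer in positive and negative ionization mode. Retention time came from computationally picked adduct peaks, each inspected by hand.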
`COc1c(C(=O)NCc2ccc(C)o2)sc2ccc(Cl)cc12`: the RP-LC retention time stood at 1120 s.

Turning to `COc1cc(NC(=O)Nc2nccn(-c3ccc(C(C)C)cc3)c2=O)cc(OC)c1`, the RP-LC retention time was 1110 s.

The compound `COc1ccc(Cl)cc1NS(=O)(=O)c1cc(-c2c(C)noc2NC(C)=O)ccc1OC` had an RP-LC retention time of 823 s. With `O=C(Cn1cnc2onc(-c3ccc(F)cc3)c2c1=O)N1CCCc2ccccc21` the figure was 1040 s; with `CCOC(=O)Cn1nc2c(-c3nc(-c4ccc(Cl)cc4)no3)cccn2c1=O`, 958 s; with `COc1ccc(NC(=O)C2CCC(=O)N2S(=O)(=O)c2ccc(C)c(C)c2)cc1Cl` (centres undefined), 956 s. With `CC(C)c1ccc(-c2ccnc3c(C(=O)NCc4ccco4)cnn23)cc1` the figure was 1090 s; with `CN(C)c1nc(C(=O)N2CCN(c3ccc(F)cc3)CC2)nc2c1cnn2C`, 739 s. With `COCCNC(=O)C1CCN(c2nc3ccc(-c4ccsc4)nc3s2)CC1` the figure was 774 s; with `CC1(C)Cc2cccc(OCC(=O)NCCc3ccc(S(N)(=O)=O)cc3)c2O1`, 694 s; with `CCc1cccc(C)c1NC(=O)Cn1cnc2c(sc3nc(-c4ccccc4)ccc32)c1=O`, 1070 s.

With `CCCCn1c(=O)c2ccccc2n(Cc2nc(-c3cccc(Br)c3)no2)c1=O`, the RP-LC retention time came to 1280 s. Turning to `COc1ccc(-c2c(C)noc2NC(C)=O)cc1S(=O)(=O)N1CCc2ccccc2C1`, the RP-LC retention time turned out to be 807 s.

Turning to `Cn1c(=O)sc2cc(S(=O)(=O)N3CCC(C(=O)Nc4ccc5c(c4)OCCO5)CC3)ccc21`, the RP-LC retention time came to 812 s. With `COc1ccc(-c2nc3ncccn3c2NCc2ccc(F)cc2)cc1OC`, the RP-LC retention time is 692 s. The value for `Cc1nc(-c2ccncc2)nc2c1CCC(=O)N2Cc1cccs1` was 723 s; that for `CN1C(=O)c2cccn2CC1C(=O)N1CCN(c2ncccn2)CC1` (centres undefined) was 609 s. The value for `CCn1ccc2cc(S(=O)(=O)N3CCC(C(=O)N4CCN(c5ccccn5)CC4)CC3)ccc21` was 674 s; that for `Cn1c(=O)n(C)c2cc(S(=O)(=O)c3ccc(F)cc3)c(NC(=O)c3ccccc3)cc21` was 885 s; that for `NC(=O)C1CCN(C(=O)NC2CCCCC2)CC1` was 584 s. The value for `NC(=O)[C@@H]1C[C@@H](O)CN1C1CCN(C(=O)CC2=CCCCC2)CC1` was 575 s. For the compound `CC(C)CN1CCCC(COc2ccccc2C(=O)NC2CC2)C1` (centres undefined), the RP-LC retention time worked out at 606 s.

Compound `COc1cccc(-c2noc(CN3C(=O)COc4cc(Cl)ccc43)n2)c1OC` displayed an RP-LC retention time of 1020 s. With `Cc1ccc2cc(CCC(=O)NCCN3CCCCCC3)c(=O)[nH]c2c1` the figure was 628 s; with `Cc1nc(Cn2cccc2C(=O)Nc2cccc(Cl)c2)no1`, 911 s. For the compound `Cc1nn(-c2nc(CC(=O)Nc3nc(-c4ccccc4)cs3)cs2)c(C)c1Cl`, the RP-LC retention time worked out at 1270 s. With `CCOc1cccc(C2c3[nH]c4ccccc4c3CCN2C(=O)COC)c1` (centres undefined) the figure was 983 s; with `Cc1ccc(-c2noc(C3CCCN3S(=O)(=O)c3cc(C)ccc3C)n2)cc1` (centres undefined), 1240 s. The value for `COC(=O)c1ccc2c(=O)n(-c3ccc(Cl)cc3)c(N3CCCC3)nc2c1` was 1060 s; that for `COc1cccc(-c2nc3cnccn3c2NCCC(=O)NC2CCN(C)CC2)c1` was 554 s. With `CCC(=O)N1CCC(N2CC(OCC3CC3)C23CCOCC3)CC1` (centres undefined) the figure was 577 s. For `CN(C)c1ccc(CCNC(=O)c2cccc(C(F)(F)F)c2)cc1`, the RP-LC retention time came to 621 s. With `COc1ccc(CC(=O)N2CCn3cnnc3C2)cc1Cl` the figure was 621 s; with `CCCN1C(=O)COc2ccc(-c3noc(-c4cccc(NC(=O)c5ccco5)c4)n3)cc21`, 1100 s. Take `CNC(=O)C1CCCN(c2nc3ncn(CC(=O)Nc4cccc(SC)c4)c(=O)c3s2)C1` (centres undefined): the RP-LC retention time came to 669 s. As to `CCCNC(=O)CC1CCN(C(=O)c2c(C)[nH]c(C(=O)OCC)c2C)CC1`, the RP-LC retention time worked out at 653 s. The compound `Cn1c(=O)c2nc(SCCC(=O)Nc3ccc(Br)cc3)n(C)c2n(C)c1=O` came in with an RP-LC retention time of 757 s. With `CCn1c(CCNC(=O)c2ccc(OC)nc2)nc2cccnc21` the figure was 732 s; with `O=C(c1ccco1)N1CCC(F)(C(=O)N2CCCC2)CC1`, 653 s; with `CC(C)CNC(=O)CN1CCN(Cc2ccc(F)cc2)C1=O`, 742 s. With `Cc1ccc(NC(=O)CSc2nc(=O)n(CCN(C)C)c3c2CCC3)cc1F` the figure was 646 s; with `CC1=C(C(=O)OCCc2ccccc2)C(c2ccc(F)cc2)NC(=O)N1` (centres undefined), 862 s; with `Cc1cccc(N2CCN(C(=O)Cn3c(=O)c4nnc(C)n4c4ncccc43)CC2)c1`, 738 s.

In turn, `O=C(C1CCCC1)N1CCn2c(nnc2-c2ccccc2)C1` registered an RP-LC retention time of 689 s. Take `O=C(CSc1ccc(N2CCCC(C(=O)NC3CC3)C2)nn1)Nc1cccc(C(F)(F)F)c1` (centres undefined): the RP-LC retention time is 687 s. With `Cc1cccc(-c2cc(C(N)=O)c3ccccc3n2)c1` the figure was 816 s; with `COc1ccc(-n2ncc3c(=O)n(Cc4nc(-c5ccccc5C)no4)cnc32)cc1`, 1060 s; with `CCc1cccc(C)c1Nc1c(-c2ccc(OC)cc2)nc2ncccn12`, 788 s. The value for `CC(=O)Nc1ccc(N2C(=O)c3cccc4c([N+](=O)[O-])ccc(c34)C2=O)cc1` was 714 s. The value for `CC(C)c1cc(N2CCN(C(=O)Cc3cccs3)CC2)nc2nncn12` was 613 s. For `Cc1cc(C(=O)N2CC(F)(F)C[C@H]2c2nc(C3CC3)no2)on1`, the RP-LC retention time came to 809 s. Turning to `O=C(Nc1ccccc1)C1CCCN(S(=O)(=O)Cc2ccccc2)C1` (centres undefined), the RP-LC retention time amounted to 940 s. The value for `CCCNC(=O)C1CCCN(C(=O)c2[nH]c(C)c(C)c2C)C1` (centres undefined) was 721 s; that for `COc1cccc(-c2noc(Cn3ccn(-c4cc(C)ccc4C)c(=O)c3=O)n2)c1` was 911 s. With `COC(=O)c1ccc(C(=O)NCCCC(=O)Nc2cccc3cccnc23)cc1` the figure was 731 s.

For `Cc1cc(Br)ccc1NS(=O)(=O)c1cc(-c2nc(C)c(C)s2)cs1`, the RP-LC retention time was 1110 s. The compound `Cc1ccc2nc(N3CCN(c4ccc(F)cc4)CC3)c(-c3noc(C)n3)cc2c1` yielded an RP-LC retention time of 732 s. The value for `Cc1cc(NC(=O)CN2C(=O)NC(c3ccc(Cl)cc3)C3=C2COC3=O)ccc1Br` (centres undefined) was 873 s; that for `O=C(NC1CCN(c2cc(-c3cccnc3)[nH]n2)CC1)C1CCCCC1` was 573 s. `Cc1cc(C)cc(NC(=O)N2CCCC(C)(C(=O)NCc3ccccc3)C2)c1` (centres undefined) came in with an RP-LC retention time of 959 s.

Regarding `Cc1ccc(CS(=O)(=O)N2CCC(CN3CCCC(C)C3)CC2)cc1` (centres undefined), the RP-LC retention time was 688 s. Turning to `O=C(NC1CCCCC1)N1CC(F)(F)C[C@H]1CN1CCc2ccccc2C1`, the RP-LC retention time was found to be 792 s. The value for `C[C@@H](NC(=O)c1cc(C(=O)N[C@@H](Cc2ccccc2)[C@H](O)CNC2CC2)cc(N(C)S(C)(=O)=O)c1)c1ccccc1` was 705 s; that for `Cc1nc(-c2csc(S(=O)(=O)N3CCC(C(=O)Nc4ccc(F)cc4F)CC3)c2)no1` was 920 s. Compound `CCc1ccc(NC(=O)N2CCCC2c2cc(C)on2)cc1` (centres undefined) showed an RP-LC retention time of 845 s.

Turning to `Cn1c(=O)c(N2CCC(NC(=O)Nc3ccccc3Cl)CC2)nc2cccnc21`, the RP-LC retention time amounted to 904 s. Take `CN1C(=O)c2cccnc2Sc2cc(C(=O)NCc3ccccc3)ccc21`: the RP-LC retention time stood at 746 s. The value for `CCn1c(=O)c2c(cc(C)n2C)n(CC(=O)Nc2ccc(F)cc2)c1=O` was 780 s; that for `O=C(NC1CCCCCC1)C1CCN(S(=O)(=O)c2ccc(-c3noc(C4CC4)n3)cc2)CC1` was 836 s. Compound `COc1ccc(OC)c(COCC(O)CN2CCN(Cc3ccccc3)CC2)c1` (centres undefined) showed an RP-LC retention time of 557 s. Turning to `Cc1ccccc1N1CCN(C(=O)c2ccc3c(c2)CC(=O)N3C)CC1`, the RP-LC retention time was found to be 839 s.

The compound `COc1ccc(C(O)CN2CCN(c3ccc(F)cc3)CC2)cc1` (centres undefined) registered an RP-LC retention time of 652 s. Turning to `O=C(Nc1ccccc1Br)c1c(O)c2cccc3c2n(c1=O)CC3`, the RP-LC retention time came out at 1240 s.

As for `O=C(Cn1cnc2c(sc3nc(-c4ccccc4)ccc32)c1=O)Nc1cccc(Cl)c1`, the RP-LC retention time was 1080 s.

In turn, `CCCCN1CCN(C(=O)C2c3ccccc3CCN2C(=O)CC)CC1` (centres undefined) came in with an RP-LC retention time of 626 s. The compound `CN(C)C(=O)c1ccc2c(c1)N(CC(=O)N1CCN(c3ccccn3)CC1)C(=O)CO2` yielded an RP-LC retention time of 784 s.

Consider `CCCCCCCCOC(=O)/C=C/c1ccc(O)c(O)c1`, for which the RP-LC retention time stood at 630 s. The value for `CN1C(=O)C2(CCN(C(=O)c3ccc(C#N)cc3)C2)c2ccccc21` (centres undefined) was 725 s. `Cc1noc(COC2CCCN(C(=O)NCCc3ccccc3)C2)n1` (centres undefined) yielded an RP-LC retention time of 756 s.
